Results: patent US20110081362A1, “TREATMENT OF CANCER” (THE BRIGHAM AND WOMEN'S HOSPITAL, INC., priority 2008, published 2011)
Entries after “also recorded” stand apart in the source; their conditions may differ.

Experiments:
Type in all cases: cell-based, human
[1] = test system: DLD-1 Ras Mut cells vs DLD-1 Ras WT cells; assay: Competition assay, GFP-labeled Ras Mut vs Ras WT cells, FACS
Procedure: E. Schematic of the competition assay used to validate shRNAs from the primary screen. Ras Mut cells expressing GFP and Ras WT cells were mixed and co-infected with the same retroviral shRNA. The Mut to WT cell ratio at the end of the experiment is measured by FACS. The percentage of Ras Mut cells in the mixture infected with a candidate RSL shRNA was normalized against that of a control shRNA targeting firefly luciferase (FF) within the same experiment to generate a normalized fitness score for the Ras Mut cells. Variations of this assay are also used to test the effect of siRNAs and chemical inhibitors.
Next, a competition assay was devised to test the reproducibility of candidate RSL shRNAs from the primary screen (Torrance et al., 2001; Smogorzewska et al., 2007). Individual shRNAs were packaged into retroviruses and infected into a 50:50 mixture of GFP+ DLD-1 Ras Mut cells and GFP (colorless) DLD-1 Ras WT cells. The relative ratio of Ras Mut versus WT cells at ˜7 days post shRNA infection was analyzed by FACS and compared to that of a mixed population infected with a negative control shRNA targeting luciferase (FIG. 8E). […] To rule out cell-line specific effect of candidate RSL shRNAs, candidates were tested using the competition assay in a second isogenic pair of colorectal cancer cell lines: HCT116 KRAS WT/G13D and HCT116 KRAS WT/−, which were derived with a similar method as the DLD-1 isogenic pair (Shirasawa et al., 1993; Torrance et al., 2001).
The competition assay used to test candidate genes from the screen was modified from a previous protocol (Torrance et al., 2001; Smogorzewska et al., 2007) and was carried out in 96-well plates in independent triplicates. For this assay, 1,000 each of GFP-labeled Ras Mut and unlabeled Ras WT cells were seeded in each well. For retroviral shRNA infection, cells were infected at an MOI of 1-5, selected for 3 days with puromycin and propagated for an additional 4-5 days before analyzed by FACS. An shRNA targeting firefly luciferase (shRNA-FF) was used as the negative control. For siRNA transfection, cells were transfected with siGenome siRNAs (Dharmacon) using Lipofectamine RNAiMAX (InVitrogen) and analyzed by FACS 5-6 days post transfection An siRNA targeting luciferase (Luc) was used as the negative control. […] Untreated wells were used as negative controls. To obtain normalized fitness of Ras Mut cells that can be compared across experiments, the percentage of Ras Mut cells in each sample was normalized to that in the control samples of that experiment.

DLD-1 Ras Mut cells = assay: CellTiter GLO cell viability assay; conditions: DLD-1 Ras Mut vs WT measured independently
Procedure: The DLD-1 and HCT116 isogenic cells were kind gifts from Dr. Bert Vogelstein (Johns Hopkins University School of Medicine) and were maintained in McCoy's 5A media supplemented with 10% FBS and antibiotics. For proliferation assays, 10,000 cells were seeded in each well of a 24-well plate and cell number was measured using CellTiterGLO (Promega). For adherent colony assays, 1000 cells were seeded in each well of a 6-well plate and colonies were counted 10 days later by Coomassie staining. For anchorage independent colony assays, 1000 cells were seeded in each well of a 6-well plate in media containing 0.35% low-melting point agarose and colonies were counted 3 weeks later by crystal violet staining. The PCR primers used to amplify HH barcodes from genomic DNA samples are JH353F 5′-[…]-3′ and HHR2L 5′-[…]-3′. […] Paclitaxel, nocodazole, MG132 and monastrol were from Sigma-Aldrich. RO-3306 was from EMD Calbiochem. Bortezomib was from LC Laboratories. Rabbit antibody against phospho-PLK1 T210 was from Abcam. Rabbit phosphoH3-S10 antibody was from Covance. Mouse antibodies against PLK1, K-Ras and tubulin were from Santa Cruz Biotechnologies. Rabbit anti-COPS4 antibody was from Bethyl Laboratories.

[2] = test system: DLD-1 PI3K Mut cells vs PI3K WT cells; assay: Competition assay, PI3K Mut vs PI3K WT cells; conditions: DLD-1 isogenic for the PI3K oncogene
[3] = test system: HCT116 PI3K Mut cells vs PI3K WT cells; assay: Competition assay, PI3K Mut vs PI3K WT cells; conditions: HCT116 isogenic for the PI3K oncogene
[4] = test system: DLD-1 Ras Mut and Ras WT cells; assay: Cell cycle and mitotic stage analysis (FACS, phospho-H3 Ser10, microscopy); conditions: for Completion of mitosis (mitotic exit) after nocodazole release: BI-2536 for 2 hours
Procedure: For cell cycle analysis, cells were ethanol fixed and stained with PI and analyzed using a BD LSR II FACS analyzer (BD Bioscience). Data analysis was carried out with BD FACS Diva and FlowJo softwares. Cell cycle synchronization by double thymidine block was based on a previous protocol (Steegmaier et al., 2007). Briefly, cells were arrested with two rounds of 20-hour thymidine (2.5 mM) treatment approximately 12 hours apart and released into mitosis. […] For one-step arrest in G2/M or in prometaphase, cells were treated overnight with either RO-3306 (10 μM) or the Eg5 kinesin inhibitor monastrol (100 μM), respectively. For mitotic entry experiments, cells were synchronized in RO-3306 (10 uM) overnight prior to release. For mitotic release experiments, cells were released from overnight synchronization in RO-3306 (10 uM) into nocodazole ([…]) for 4 hours and mitotic cells were collected by mitotic shake-off. Cells were then release by washing out the nocodazole. For the analysis of lagging chromosomes and mitotic index by microscopy, cells seeded onto coverslips were arrested in mitosis with 100 μM monastrol for 16 hours. Cells were washed and released into fresh media and were fixed at ten minute intervals for two hours in PHEM buffer+2% formaldehyde+0.5% triton-X100. Cells were immunostained with DAPI to visualized DNA and antibodies to phospho-histone H3 Ser10 (pH3S10) and to α-tubulin to identify mitotic cells at different stages. Independent triplicates with >100 cells per replicate were analyzed. For measuring mitotic index by FACS, cells were trypsinized, fixed with ethanol and stained with PI and pH3S10 antibody.

[5] = test system: HMECs, HCT116, HCC1954 and DLD-1 cells; assay: Cell viability after nutlin-3 treatment; conditions: 4 days of nutlin-3 treatment; HMECs and HCT116 p53 wild-type, HCC1954 and DLD-1 p53 mutant
Procedure: Cell viability is reflective of their p53 status (HMECs and HCT116 cells, p53 wild-type; HCC1954 and DLD-1 cells, p53 mutant). Cell viability was measured after 4 days of nutlin-3 treatment (*, P<0.05). ctrl, control.
Cells were infected in triplicate in 96-well or 24-well plates with retroviruses of individual shRNAs as described above, and the media was replaced 24 h after infection. On days 2, 6, or 9 post-infection, cell viability was measured using CellTiter-Glo reagent (Promega) per manufacturer's instruction on a Wallac Victor2 plate reader (Perkin Elmer).

MDM2 and p21 = assay: Western blot of MDM2 and p21 in response to nutlin-3; conditions: 2 days post treatment
Text: D. Top, Western blots of MDM2 protein knockdown in HCC1954 cells and HMECs by MDM2 shRNAs (4 days post-infection) as indicated in FIG. 4E.
The following primary and secondary antibodies were used for immunoblotting with the indicated dilutions: rabbit anti-Rbx1 and mouse anti-PRPS2 (1:500, Abcam), rabbit anti-MYPT1 (PPP1R12A gene product, 1:500, Upstate), mouse anti-tubulin and rabbit anti-GAPDH (1:2000, Sigma), mouse anti MDM2 (1:500, Santa Cruz), rabbit anti-BUB1 (1:500, Bethyl), mouse anti-p53 DO-1 and mouse anti-p21 (1:500, Calbiochem), goat anti-rabbit-HRP (1:5000, Jackson ImmunoResearch), and goat anti-mouse-HRP (1:5000, Jackson ImmunoResearch). Positive and negative siRNA controls, including siLUC, siTOX, siGLO duplexes and a PLK1 SMARTpool, were purchased from Dharmacon.

Row | Compound | Viability/fitness of Ras Mut cells after transient treatment ([1]; DLD-1, 24 hours treatment, drug washed out, 3 additional days before FACS) | Concentration at which the synthetic lethal effect is strongest ([1]; DLD-1 cells) | Toxicity by CellTiter GLO cell viability (DLD-1 Ras Mut cells) | Fitness of PI3K Mut cells vs PI3K WT cells [2] | Fitness of PI3K Mut cells vs PI3K WT cells [3] | G2/M accumulation, cell cycle distribution ([4]; DLD-1, 25 nM or 50 nM BI-2536 for one day) | Sub-G1 population (cell death) ([4]; DLD-1, prolonged treatment with BI-2536 (25 nM) for 2 days) | Completion of mitosis (mitotic exit) after nocodazole release ([4]; DLD-1 Ras Mut cells) | Prometaphase arrest of mitotic cells ([4]; DLD-1 Ras Mut vs Ras WT) | Completion of mitosis (mitotic exit) after nocodazole release ([4]; DLD-1 Ras WT cells) | Mitotic entry after release from RO-3306 into nocodazole ([4]; DLD-1 Ras WT or Ras Mut, synthetic lethal concentration of BI-2536, 1 hour) | Cell viability, sensitivity to nutlin-3 [5] | MDM2 and p21 protein induction (MDM2 and p21)
1 | CC[C@@H]1C(=O)N(C)c2cnc(Nc3ccc(C(=O)NC4CCN(C)CC4)cc3OC)nc2N1C1CCCC1 [BI-2536] | sufficient to selectively impair the viability of Ras Mut cells | approximately 25 nM | enhanced toxicity in DLD-1 Ras Mut cells | more resistant to these inhibitors relative to DLD-1 PI3K WT cells | very little difference | Ras Mut cells show a profound G2/M accumulation | elevated sub-G1 population in Ras Mut cells | profound delay in mitotic exit in Ras Mut cells | strong block of Ras Mut cells in prometaphase | minimal effect on Ras WT cells | unaffected |  | 
2 | COc1ccc(C2=N[C@@H](c3ccc(Cl)cc3)[C@@H](c3ccc(Cl)cc3)N2C(=O)N2CCNC(=O)C2)c(OC(C)C)c1 [nutlin-3] |  |  |  |  |  |  |  |  |  |  |  | recapitulating the sensitivity of these cells to MDM2 inactivation; also recorded: Differential sensitivity of the four cell lines | MDM2 and p21 induction
